Experimental data: the supplement of paper PMC11061612

Assays:
[1] = test system: SNU-C1 (Colorectal Carcinoma); experiment: Bliss excess, mean over the matrix (fraction); higher = more synergy
How it was run: (§1)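 After 24 hours at 37°C and 5% CO2 in 1536-well plates, cells in DMEM/F12 or RPMI plus 10% FBS received two-drug dose matrices for 72 hours. Viability came from CellTiter-Glo 2.0 luminescence and was scaled as inhibition, anchored at 0 by vehicle wells and at 1 by blank wells. Combination Emax is taken as the second-highest inhibition in the matrix, and Bliss excess as the observed combination effect less EA + EB − EA·EB, with EA and EB the single-agent effects.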

[2] = test system: MFE-319 (Endometrial Carcinoma); experiment: as above
How it was run: as §1

[3] = test system: SCC-9 (Oral Cavity Carcinoma); experiment: as above
How it was run: as §1

[4] = test system: KP-2 (Pancreatic Carcinoma); experiment: as above
How it was run: as §1

[5] = test system: KYSE-50 (Esophageal Squamous Cell Carcinoma); experiment: as above
How it was run: as §1

[6] = test system: LC4-1 (B-Lymphoblastic Leukemia); experiment: as above
How it was run: as §1

[7] = test system: ASH-3 (Thyroid Gland Carcinoma); experiment: as above
How it was run: as §1

NH-12 (Neuroblastoma) = experiment: as above
How it was run: as §1

EW-13 (Ewing's Sarcoma) = experiment: as above
How it was run: as §1

[8] = test system: H-EMC-SS (Chondrosarcoma); experiment: as above
How it was run: as §1

[9] = test system: OVISE (Ovarian Carcinoma); experiment: as above
How it was run: as §1

[10] = test system: LOU-NH91 (Squamous Cell Lung Carcinoma); experiment: as above
How it was run: as §1

[11] = test system: NCI-H322M (Lung Adenocarcinoma); experiment: as above
How it was run: as §1

[12] = test system: NCI-H1573 (Lung Adenocarcinoma); experiment: as above
How it was run: as §1

GOTO (Neuroblastoma) = experiment: as above
How it was run: as §1

[13] = test system: HSC-2 (Oral Cavity Carcinoma); experiment: as above
How it was run: as §1

[14] = test system: OCUM-1 (Gastric Carcinoma); experiment: as above
How it was run: as §1

[15] = test system: TGBC11TKB (Gastric Carcinoma); experiment: as above
How it was run: as §1

[16] = test system: MFE-319 (Endometrial Carcinoma); experiment: combination Emax (second highest fraction inhibited in the dose matrix, 72 h); higher = more inhibition; extreme values may be limits of the assay
How it was run: as §1

[17] = test system: ASH-3 (Thyroid Gland Carcinoma); experiment: as above
How it was run: as §1
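Wherever Bliss excess, mean over the matrix is given: after 72 h of two-drug dosing.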

**Q.** For `CCc1c2c(nc3ccc(O)cc13)-c1cc3c(c(=O)n1C2)COC(=O)[C@]3(O)CC` [SN-38] + O=C(c1cc(Cc2n[nH]c(=O)c3ccccc23)ccc1F)N1CCN(C(=O)C2CC2)CC1 [Olaparib] (first compound max 0.3 µM, 7x7, partner max 10 µM), which Bliss excess [1] is on record?
**A.** The Bliss excess was -0.0419.

**Q.** What about the Bliss excess [2] of the same compound?
**A.** Its Bliss excess is 0.0328.

**Q.** And the Bliss excess [3]?
**A.** Its Bliss excess is 0.0207.

**Q.** What about the Bliss excess [4] of the same compound?
**A.** Its Bliss excess is 0.0564.

**Q.** And the Bliss excess [5]?
**A.** Its Bliss excess is 0.0126.

**Q.** What about the Bliss excess [6] of the same compound?
**A.** The Bliss excess was 0.0234.

**Q.** And the Bliss excess [7]?
**A.** The Bliss excess was 0.074.

**Q.** And the Bliss excess (NH-12 (Neuroblastoma))?
**A.** Its Bliss excess is -0.0089.

**Q.** And the Bliss excess (EW-13 (Ewing's Sarcoma))?
**A.** The Bliss excess was 0.0804.

**Q.** What about the Bliss excess [8] of the same compound?
**A.** The Bliss excess was 0.0825.

**Q.** And the Bliss excess [9]?
**A.** The Bliss excess was 0.0082.

**Q.** What about the Bliss excess [10] of the same compound?
**A.** The Bliss excess was 0.0095.

**Q.** And the Bliss excess [11]?
**A.** Its Bliss excess is 0.0495.

**Q.** And the Bliss excess [12]?
**A.** Its Bliss excess is -0.0085.

**Q.** What about the Bliss excess (GOTO (Neuroblastoma)) of the same compound?
**A.** Its Bliss excess is -0.0014.

**Q.** What about the Bliss excess [13] of the same compound?
**A.** Its Bliss excess is 0.102.

**Q.** What about the Bliss excess [14] of the same compound?
**A.** The Bliss excess was 0.014.

**Q.** And the Bliss excess [15]?
**A.** Its Bliss excess is 0.0814.

**Q.** And the “combination Emax” value [16]?
**A.** Its value is 0.301.

**Q.** What about the “combination Emax” value [17] of the same compound?
**A.** Its value is 0.912.
